The text below walks through data of patent publication US20230295285A1, “METHODS OF REVERSING CACHEXIA AND PROLONGING SURVIVAL COMPRISING ADMINISTERING A GDF15 MODULATOR AND AN ANTI-CANCER AGENT” (AVEO Pharmaceuticals, Inc., priority 2014, published 2023).

Common to all, as to assay type: in vivo
Series [1] concerns the target T1, GDF15 (Mus musculus, UniProt Q9Z0J7).
T1 construct: Naive non-tumor-bearing, 8-week old, female, ICR-Scid mice; from tissue; host or cells: whole animal: ICR-Scid mice (endogenous circulating GDF15)
T1 sequence (Q9Z0J7 189-303): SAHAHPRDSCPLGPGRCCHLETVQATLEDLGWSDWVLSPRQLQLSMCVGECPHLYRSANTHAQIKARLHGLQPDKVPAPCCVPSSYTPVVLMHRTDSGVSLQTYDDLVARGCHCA
As to conditions: ICR-Scid mice. As for the experimental part: Naive non-tumor-bearing, 8-week old, female, ICR-Scid mice were treated with carboplatin (60 mpk) by intra-peritoneal injection on Day 0 and Day 3 of this experiment. On Day 2, after mice experience 8% body weight loss, mice were randomized into two groups of ten mice each. One group received carboplatin (60 mpk) plus (1) vehicle or carboplatin (60 mpk) plus (2) rabbit monoclonal antibody raised against murine anti-GDF15 antibody, R-23 (20 mpk) by intra-peritoneal injection on Day 2 and Day 4. In the absence of GDF15 inhibition, 80% of the mice died due to cachexia caused by the carboplatin agent over a period of 8 days.

The target in series [2] is T1, GDF15. The following applies: non-tumor-bearing ICR-Scid mice; cisplatin 3 mpk i.p. twice a week + vehicle; over 9 days. As to the method: Naive non-tumor-bearing, 8-week old, female, ICR-Scid mice were treated with cisplatin (3 mpk) twice a week by intra-peritoneal injection. Body weight was measured daily. After 2 doses of cisplatin (day 0 of the experiment) mice were randomized into two groups of ten mice each. One group received cisplatin 3 mpk plus (1) vehicle; or cisplatin 3 mpk with (2) rabbit monoclonal antibody raised against murine anti-GDF15 antibody, R-23 twice a week (20 mpk) by intra-peritoneal injection. In the absence of GDF15 inhibition, 80% of the mice die due to cachexia caused by the cisplatin agent over a period of 9 days.

Series [3] deals with T1, GDF15. As to conditions: ICR-Scid mice. As to the method: Naive non-tumor-bearing, 8-week old, female, ICR-Scid mice were treated daily with oxaliplatin (3 mpk) by intra-peritoneal injection. On Day 3, after mice experience 8% body weight loss, mice were randomized into two groups of ten mice each. One group received oxaliplatin (3 mpk) plus (1) vehicle; or oxaliplatin (3 mpk) plus (2) rabbit monoclonal antibody raised against murine anti-GDF15 antibody, R-23 (20 mpk). Antibody or vehicle was dosed on Day 3, 5, 7, 9 by intra-peritoneal injection. In the absence of GDF15 inhibition, 45% of the mice die due to cachexia caused by the oxaliplatin agent over a period of 10 days.
The source holds these as a separate data set.

Series [4] relates to GDF15. Briefly: Survival and cachexia in mice bearing LNCaP prostate xenograft, anti-GDF15 antibody plus tivozanib. The following applies: LNCaP xenograft NCR Nude mice. As for the experimental part: LNCaP cells were grown in culture at 37° C. in an atmosphere containing 5% CO2, using RPMI-1640 Medium (ATCC® 30-2001™) containing 10% FBS. Cells were inoculated subcutaneously into the flank of 8-week old female NCR Nude mice with 5×10^6 cells per mouse in 50% matrigel. When tumor size reached 500 mm^3, the mice were randomized into three groups of ten mice each. Each group received one of the following treatments: (1) murine immunoglobulin G (20 mpk) and vehicle (Control); (2) murine anti-GDF15 antibody 14F11 (20 mpk) and tivozanib (5 mpk); or (3) murine immunoglobulin G (20 mpk) and tivozanib (5 mpk). Antibodies were administered every 3 days by intra-peritoneal injection, tivozanib and vehicle control was administered daily by oral gavage. Body weight and tumor size were measured daily. Mice were evaluated daily and if any of the following criteria were achieved, animals were sacrificed: a) tumor size larger than 2,000 mm^3; b) body weight loss greater than 20%; c) moribund.
In the absence of GDF15 inhibition, 70% of the mice die due to cachexia over a period of 30 days, even in the presence of anti-cancer treatment.

Where two headings read alike, the source gives them in different places.

As for `N.N.O=C([O-])C1(C(=O)[O-])CCC1.[Pt+2]` [carboplatin], the “mice died due to cachexia caused by carboplatin” value in series [1] (carboplatin 60 mpk i.p. Day 0 and Day 3 + vehicle, over 8 days) was determined as 80%. The body weight loss in series [1] (carboplatin 60 mpk i.p., on Day 2, before randomization) is 8%.

As to `N.N.[Cl][Pt][Cl]` [cisplatin], in series [2], the “mice die due to cachexia caused by cisplatin” value is 80%.

Turning to `O=C1[O][Pt]2([NH][C@@H]3CCCC[C@H]3[NH]2)[O]C1=O` [oxaliplatin], in series [3] (oxaliplatin 3 mpk i.p. daily + vehicle, over 10 days), the “mice die due to cachexia caused by oxaliplatin” value worked out at 45%. In addition, the body weight loss in series [3] (oxaliplatin 3 mpk i.p. daily, on Day 3, before randomization) turned out to be 8%.

On to `COc1cc2nccc(Oc3ccc(NC(=O)Nc4cc(C)on4)c(Cl)c3)c2cc1OC` [tivozanib], for which the “effect on tumor growth” value in series [4] (tivozanib 5 mpk daily oral) is listed as “slows down tumor growth”. Moreover, the “mice die due to cachexia” value in series [4] (tivozanib 5 mpk daily oral gavage + murine IgG 20 mpk, absence of GDF15 inhibition, over 30 days) was 70%.

B1: 14F11: murine anti-GDF15 antibody; light chain SEQ ID NO: 34, heavy chain SEQ ID NO: 53 (antibody)
heavy: QVTLKESGPGILQPSQTLSLTCSFSGFSLSTYGMGVGWIRQPSGKGLEWLADIWWDDDKYYNPSLKSRLTISKDTSSNEVFLKIAIVDTADTATYYCARRGHYSAMDYWGQGTSVTVSSAKTTPPSVYPLAPGSAAQTNSMVTLGCLVKGYFPEPVTVTWNSGSLSSGVHTFPAVLQSDLYTLSSSVTVPSSTWPSETVTCNVAHPASSTKVDKKIVPRDCGCKPCICTVPEVSSVFIFPPKPKDVLTITLTPKVTCVVVDISKDDPEVQFSWFVDDVEVHTAQTQPREEQFNSTFRSVSELPIMHQDWLNGKEFKCRVNSAAFPAPIEKTISKTKGRPKAPQVYTIPPPKEQMAKDKVSLTCMITDFFPEDITVEWQWNGQPAENYKNTQPIMDTDGSYFVYSKLNVQKSNWEAGNTFTCSVLHEGLHNHHTEKSLSHSPGK
light: DIVMTQSQKFMSTSVGDRVSVTCKASQNVGTNVAWYQQKPGQSPKALIYSPSYRYSGVPDRFTGSGSGTDFTLTISNVQSEDLAEYFCQQYNSYPHTFGGGTKLEMKRADAAPTVSIFPPSSEQLTSGGASVVCFLNNFYPKDINVKWKIDGSERQNGVLNSWTDQDSKDSTYSMSSTLTLTKDEYERHNSYTCEATHKTSTSPIVKSFNRNEC
Take B1: in series [4] (14F11 20 mpk + tivozanib 5 mpk, 30 day period), the anti-tumor effect result was “effective anti-tumor treatment”. In series [4] (14F11 20 mpk + tivozanib 5 mpk, 30 days), the effect on cachexia entry is recorded as “reverses cachexia”. In addition, the sustained survival in series [4] (14F11 20 mpk i.p. every 3 days + tivozanib 5 mpk daily oral, over 30 day period, FIG. 1) is 100%.
